We go through 55 molecules from PubChem BioAssay AID720632 (Broad Institute, 2013).

Activity calls are given as the source filed them. No rule for the calls is given here.

For one assay, the target named is Caspase-6 (Homo sapiens) (UniProt P55212). Briefly: inhibition of CASP6 peptide cleavage – biochemical, VEID-R110 fluorescence, cherry-pick, dose response (AID 720632). The following applies: caspase-6, VEID-R110 fluorogenic substrate; at 23.5 µM (top of the series).
Chain of Caspase-6 (Homo sapiens) (P55212 24-179 limits assumed): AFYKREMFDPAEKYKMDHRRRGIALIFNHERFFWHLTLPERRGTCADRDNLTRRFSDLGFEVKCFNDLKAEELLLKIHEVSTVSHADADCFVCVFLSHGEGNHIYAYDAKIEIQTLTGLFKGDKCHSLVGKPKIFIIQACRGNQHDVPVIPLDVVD
Chain of Caspase-6 (Homo sapiens) (P55212 194-293 limits assumed): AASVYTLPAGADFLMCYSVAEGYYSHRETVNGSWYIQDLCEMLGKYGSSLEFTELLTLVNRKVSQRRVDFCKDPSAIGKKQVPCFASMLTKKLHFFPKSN
With `N#C[C@@H]1[C@H](c2ccc(C3=CCCCC3)cc2)[C@@H](CO)N1S(=O)(=O)c1ccccc1`, the “activity change, negative = inhibition” value is “inactive”.

Still in this assay, the particulars now being: caspase-6, VEID-R110 fluorogenic substrate; at 26 µM (top of the series).
For `O=C1C2C3C=CC(CC3)C2C(=O)N1c1nccs1` (stereo not given), the “activity change, negative = inhibition” value was “inactive”.
With `COc1ccc(O)c(C(c2c(C)[nH][nH]c2=O)c2c(C)[nH][nH]c2=O)c1`, the “activity change, negative = inhibition” value is “inactive”.
In the case of `COC(=O)[C@@H]1[C@@H](CO)[C@@H]2Cn3c(cccc3=O)[C@@H]2N1CC1CCOCC1`, the “activity change, negative = inhibition” value was “inactive”.
On the same count and under the same terms, under `CCc1ccc(NS(=O)(=O)c2cc(OC)ccc2OC)cc1` stands “inactive”; under `O=C1NC(=O)C(Sc2ccccc2[N+](=O)[O-])C(=O)N1`, “inactive”; under `O=C1c2ccccc2[C@@H]2C[C@@H](O)[C@H](Nc3cccc4ccccc34)CCN12`, “inactive”.
Still for that read-out and setting: as for `C/C(CC(=O)Nc1cc(C)ccn1)=N\NC(=O)c1cccc(C)c1O`, the entry is “inactive”; as for `O=C(C[C@@H]1C=C[C@H](NC(=O)C2CC2)[C@H](CO)O1)Nc1nccs1`, “inactive”.
On the same count and under the same terms, under `CCOc1ccc(N2CC(C(=O)NCC(=O)Nc3ccc(F)c(F)c3F)CC2=O)cc1` (stereo not given) stands “inactive”.
For the molecule `CC1CCN(CCCNC(=O)COc2cc(=O)n(C)c3ccccc23)CC1`, the “activity change, negative = inhibition” value was “inactive”.
Same read-out and setting: as for `OC(c1ccc(F)cc1)c1ncc(-c2ccccc2F)[nH]1` (stereo not given), the entry is “inactive”; as for `CCc1nc2c(OCc3ccc(C(=O)OC)cc3)cccn2c1N(C)C(=O)c1ccc(C)cc1`, “inactive”; as for `CC(=O)Nc1ccc(NC(=O)COC(=O)c2ccc([N+](=O)[O-])o2)cc1`, “inactive”.
Same read-out and setting: under `CCOC(=O)N1CCN(C(=O)CN(C)S(=O)(=O)c2ccc3c(c2)c(=O)n(C)c(=O)n3C)CC1` stands “inactive”.
On the same count and under the same terms, under `COc1cc(N)c(Cl)cc1C(=O)NC1CCN(Cc2ccccc2)CC1` stands “inactive”; under `CO[C@@H]1CN(C)C(=O)c2ccc(NC(=O)c3ccccc3)cc2OC[C@@H](C)N(C(=O)C2CC2)C[C@@H]1C`, “inactive”.
With `O=C(CCCCCn1c(=S)[nH]c2cc3c(cc2c1=O)OCO3)N1CCN(c2ccc(F)cc2)CC1`, the “activity change, negative = inhibition” value was “inactive”.
On to `CCOc1ccc(Nc2nc(N3CCOCC3)nc(N3CCOCC3)n2)cc1`, for which the “activity change, negative = inhibition” value was “inactive”.
Same read-out and setting: under `CO[C@@H]1CN(C)C(=O)c2ccc(NC(C)=O)cc2OC[C@@H](C)NC[C@@H]1C` stands “inactive”; under `Cn1c(NN=O)nc2ccccc21`, “inactive”; under `O=C(CCCCCn1c(=S)[nH]c2cc3c(cc2c1=O)OCO3)N1CCN(C2CCCCC2)CC1`, “inactive”.
The same measure, in the same setting: under `Cc1ccc(-c2[nH]c3cc(C(=O)NCCCn4ccnc4)ccc3c(=O)c2O)cc1` stands “inactive”.
Same read-out and setting: under `O=C(NCC(=O)N1CC=C(c2ccccc2)CC1)c1ccccc1Br` stands “inactive”.
As for `COc1ccc(OCCN2CCC(C(=O)NC(c3ccccn3)c3ccccc3OC)CC2)cc1` (stereo not given), the “activity change, negative = inhibition” value was “inactive”.
On the same count and under the same terms, as for `O=C(CC1C(=O)NCCN1Cc1cccc(F)c1F)NCCCC1CCCC1` (stereo not given), the entry is “inactive”; as for `Cn1cc(C(CC(=O)O)C(=O)O)c2ccccc21` (stereo not given), “inactive”.
Same read-out and setting: under `O=C(ONC(=O)C1CCCCC1C(=O)NOC(=O)c1ccccc1)c1ccccc1` (stereo not given) stands “inactive”; under `CO[C@@H]1CN(C)C(=O)c2ccc(NC(=O)C3CC3)cc2OC[C@@H](C)N(Cc2ccccc2)C[C@@H]1C`, “inactive”.
Still for that read-out and setting: as for `CCCC(=O)Nc1ccc2c(c1)OC[C@H](C)N(CCC)C[C@H](C)[C@@H](OC)CN(C)C2=O`, the entry is “inactive”; as for `O=C(Nc1cccc(C(=O)N2CCOCC2)c1)c1ccc([N+](=O)[O-])cc1`, “inactive”.
On to `O=C(COC(=O)c1ccc([N+](=O)[O-])s1)NC(=O)NCc1ccccc1`, for which the “activity change, negative = inhibition” value is “inactive”.
On the same count and under the same terms, as for `O=C(Cn1cncn1)NCCCc1ccccc1`, the entry is “inactive”.
In the case of `Cc1cnc(NC(=O)c2ccc3c(c2)OCCO3)s1`, the “activity change, negative = inhibition” value is “inactive”.
Still for that read-out and setting: under `COc1ccc(N2CCN(C(=O)CCNS(=O)(=O)c3ccc(C)cc3)CC2)cc1` stands “inactive”; under `COc1ccc(OC)c(NC(=O)Nc2ccc(O)c3ccccc23)c1`, “inactive”.
On the same count and under the same terms, under `CCC(=O)Nc1ccc2c(c1)OC[C@H](C)N(C(=O)CC)C[C@@H](C)[C@@H](OC)CN(C)C2=O` stands “inactive”.
In the case of `CCOC(=O)c1sc(C)c2c(=O)n(Cc3ccc(Cl)cc3)cnc12`, the “activity change, negative = inhibition” value is “inactive”.
In the case of `CN1CCCCC(NC(=O)COCc2ccccc2)C1=O` (stereo not given), the “activity change, negative = inhibition” value is “inactive”.
Same read-out and setting: under `CC1CCN(C(=O)Cn2cc(C(F)(F)F)ccc2=O)c2ccccc2S1` (stereo not given) stands “inactive”; under `Nc1ccc(Sc2ccccc2Cl)nc1`, “inactive”; under `CCOc1cc2c(cc1OC)C(c1cccc([N+](=O)[O-])c1)NCC2` (stereo not given), “inactive”.
Same read-out and setting: as for `O=C(NCC(c1ccco1)N1CCc2ccccc21)c1cccc([N+](=O)[O-])c1` (stereo not given), the entry is “inactive”; as for `Cc1ccc(NC(=O)c2ocnc2C)cc1Cl`, “inactive”.
Still for that read-out and setting: as for `CCC(=O)Nc1ccc2c(c1)OC[C@@H](C)N(Cc1ccccc1)C[C@@H](C)[C@@H](OC)CN(C)C2=O`, the entry is “inactive”; as for `O=c1nc2ccc(Cl)cn2c2ccc(S(=O)(=O)N3CCCCC3)cc12`, “inactive”; as for `COc1ccccc1C(=O)Nc1ccc2c(c1)OC[C@@H](C)N(CC1CC1)C[C@H](C)[C@H](OC)CN(C)C2=O`, “inactive”.
On to `CO[C@@H]1CN(C)C(=O)c2ccc(NC(C)=O)cc2OC[C@H](C)N(C(=O)CC2CC2)C[C@@H]1C`, for which the “activity change, negative = inhibition” value was “inactive”.
Same read-out and setting: as for `CCC(C)Nc1nc2c(C)cccn2c(=O)c1C=Nc1ccc(OC)cc1` (stereo not given), the entry is “inactive”; as for `CCN(Cc1ccccc1OC)CC1CCCN(CCc2cccc(OC)c2)C1` (stereo not given), “inactive”; as for `CO[C@H]1CN(C)C(=O)c2ccc(NC(=O)C3CC3)cc2OC[C@@H](C)N(Cc2cccc(F)c2)C[C@@H]1C`, “inactive”.
Take `CC(C)=NNc1cc([N+](=O)[O-])cc2c1C(=O)N(C)S2=O` (stereo not given): the “activity change, negative = inhibition” value was “inactive”.
The same measure, in the same setting: under `CO[C@H]1CN(C)C(=O)c2ccc(NC(=O)c3ccccc3)cc2OC[C@H](C)N(C(=O)C2CC2)C[C@H]1C` stands “inactive”; under `Cc1ccc(/C(N)=N/OC(=O)c2ccc3ccccc3c2)cc1`, “inactive”; under `COc1cccc(NC(=O)CC(=O)c2ccc([N+](=O)[O-])cc2)c1`, “inactive”.
